Structures are written as SMILES.

Experiment [1] concerns the target T1, full-length WT STING (Homo sapiens, UniProt Q86WV6, H232R).
T1 construct: AviTag (after gg linker) (C); HRV3C cleavage site (after gs linker) (C); HIS8 (C); made in house; host or cells: Trichoplusia ni (Hi-Five) insect cells infected with baculovirus (virus generated and amplified in Sf21 cells); used as a washed membrane preparation
Description: 3H-cGAMP filtration binding assay (WT STING). The note with it: for EC50: competition with tritiated cGAMP, WT STING membrane. The protocol:
The ability of compounds to bind STING is quantified by their ability to compete with tritiated cGAMP ligand for human STING receptor membrane using a radioactive filter-binding assay. The binding assay employs STING receptor obtained from Trichoplusia ni cell membranes (T. ni; Expression Systems, cat #94-002F, www.expressionsystems.com) overexpressing full-length WT STING and tritiated cGAMP ligand.
The basic WT STING filtration assay protocol is as follows:
16 nM of [^3H] c-GAMP ligand was prepared by diluting into assay buffer, and 50 uL of this working stock was manually added to each well of the assay plate. After ligand addition, 2 uL of either titrated test compound, DMSO control (Sigma #276855), or cold cGAMP control was added to the appropriate wells using a BIOMEK FX. The serially titrated compound was prepared on a Hamilton STARPlus CORE in a 96-well plate (Greiner, #651201) using a 1:3 ten-point dose response format. Following compound addition, a 2.2 ug/ml working concentration of STING membrane (SEQ. ID. No. 3) was prepared by diluting concentrated membrane into assay buffer (1×PBS; Invitrogen # SH30028.02) and douncing 7× using a manual tissue homogenizer (Wheaton, #357546). 148 uL of this prepared membrane was then manually added to each well of a 96-well deep-well polypropylene plate (Fisher Scientific, #12-566-121). Compound, ligand, and membrane then incubated for 60 min at RT before the contents of each assay plate were filtered through a 96-well GF/B filter plate (PerkinElmer, #6005250) using a TOMTEC MACH III Cell Harvester equipped with 20 mM HEPES buffer (Fisher Scientific, # BP299500). The filter plates were then dried at 55° C. for 30 min using a pressurized VWR oven before 30 uL of ULTIMA GOLD F scintillate was added to each well. Tritium levels for each reaction well were then measured using a PerkinElmer TopCount plate reader.
(§1) After normalization to controls, the percent activity for each compound concentration was calculated by measuring the amount of remaining radioactivity. The plot of percent activity versus the log of compound concentration was fit with a 4-parameter dose response equation to calculate EC50 values.

For experiment [2], the system named is secretion of interferon-beta from THP1 cells. As to the kind of experiment: IFN-β secretion in THP1 cell culture (5 h). As to conditions: Homo sapiens, THP-1, 5 h, compound at 30 μM, 30 uM cGAMP = 100%, read-out: % Effect at 30 μM relative to 2′3′-cGAMP. Format: cell-based. The protocol: The ability of compounds to stimulate the secretion of interferon-beta from THP1 cells was measured using a human IFN-β AlphaLISA kit (Perkin Elmer, Cat. No. AL265F). The basic protocol is as follows:
A Labcyte Echo 550 acoustic dispenser was used to transfer 120 nL of compound dissolved in DMSO into the wells of an empty, sterile 384-well microplate, (Corning, Cat. No. 3712). THP1 cells (American Type Culture Collection, Cat. No. TIB202) previously frozen in Recovery Medium (Life Technologies, Cat. No. 12648-010) were thawed and immediately diluted 10-fold into 37° C. assay medium (RPMI 1640+L-Glutamine & phenol red, Life Technologies, Cat. No. 11875-085; 0.5% heat inactivated fetal bovine serum, Sigma Aldrich, Cat. No. F4135; 1 mM Sodium Pyruvate, Life Technologies, Cat. No. 11360-070; 1× non-essential amino acids; Life Technologies, Cat. No. 11140-050). The cell viability and count was ascertained using a Beckman Coulter V-Cell XR cell counter. The cells suspension was centrifuged at 200×g for 5 min at RT. Cells were resuspended to a density of 0.8×10^6/mL in 37° C. assay medium. Subsequent liquid transfers were performed using either a Matrix electronic multichannel pipette or an Agilent Bravo Automated Liquid Handling Platform.
The assay was started by dispensing 40 μL of the previously prepared cell suspension into the wells of the plate containing compounds. After 5 h incubation at 37° C., 5% CO2 in a humidified atmosphere, the plate of cells and compounds was centrifuged at 200×g for 5 min at RT. From each well, 5 μL of supernatant was transferred into corresponding wells of a white 384-well plate (Perkin Elmer, Cat. No. 6005620). To these supernatant-containing wells was added 10 μL of 5× Anti-Analyte Acceptor beads (50 μg/mL of AlphaLISA HiBlock Buffer) and incubated for 30 min at RT while shaking on an orbital plate shaker. To each well was added 10 μL of 5× Biotinylated Antibody Anti-analyte (5 nM in AlphaLISA HiBlock Buffer) and incubated on an orbital plate shaker for 60 min at RT or overnight at 4° C. To each well was added 25 μL of 2× SA-Donor beads (80 μg/mL in AlphaLISA HiBlock Buffer) and incubated for 30-45 min at RT in the dark while shaking on an orbital plate shaker. The plate was then read on a Perkin Elmer Envision (λex=680 nm, […]). The percent effect of the AlphaLISA signal at each compound concentration was calculated based on 30 uM cGAMP positive controls and 0.3% DMSO negative controls. The plot of percent effect versus the log of compound concentration was fit with a 4-parameter concentration response equation to calculate EC50 values. The test compounds were tested at concentrations 30000, 10000, 3333, 1111, 370.4, 123.4, 41.2, 13.7, 4.6, and 1.5 nM with 0.3% residual DMSO. The control compound, cGAMP was tested at concentrations 100000, 33333, 11111, 3704, 1235, 412, 137, 46, and 15 nM with 0.3% residual DMSO.
Compounds of the disclosure were evaluated for IFN-β secretion in THP1 cell culture as described above. The following table tabulates the biological data for these compounds as percent activation relative to 2′3′-cGAMP at the 30 µM concentration.

The target in experiment [3] is T2, full-length HAQ STING (Homo sapiens, UniProt Q86WV6, G230A/H232R/R293Q/R71H).
T2 construct: AviTag (after GG linker) (C); HRV3C cleavage site (after GS linker) (C); HIS8 (C); made in house; host or cells: Trichoplusia ni (Hi-Five) insect cells infected with baculovirus (virus generated and amplified in Sf21 cells); used as a washed membrane preparation
T2 sequence (Q86WV6 with tags, fused parts or gaps R71H/G230A/H232R/R293Q): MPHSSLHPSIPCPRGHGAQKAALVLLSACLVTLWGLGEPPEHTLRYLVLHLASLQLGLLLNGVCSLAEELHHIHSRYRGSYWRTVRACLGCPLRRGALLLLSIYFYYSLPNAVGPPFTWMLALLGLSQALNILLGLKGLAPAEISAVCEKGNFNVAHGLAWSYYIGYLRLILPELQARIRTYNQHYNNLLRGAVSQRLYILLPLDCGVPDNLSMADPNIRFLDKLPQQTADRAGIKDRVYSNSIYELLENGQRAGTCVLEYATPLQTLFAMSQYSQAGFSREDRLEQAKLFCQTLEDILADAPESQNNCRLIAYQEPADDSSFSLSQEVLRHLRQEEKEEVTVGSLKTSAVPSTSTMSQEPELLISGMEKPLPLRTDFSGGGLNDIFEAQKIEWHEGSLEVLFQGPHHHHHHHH
As to the kind of experiment: 3H-cGAMP filtration binding assay (HAQ STING). The note with it: competition with tritiated cGAMP, HAQ STING membrane.
From the text: The ability of compounds to bind STING is quantified by the ability to compete with tritiated cGAMP ligand for human STING receptor membrane using a radioactive filter-binding assay. The binding assay employs STING receptor obtained from Hi-Five cell membranes overexpressing full-length HAQ STING prepared in-house and tritiated cGAMP ligand also purified in-house.
The ability of compounds to bind STING is quantified by their ability to compete with tritiated cGAMP ligand for human STING receptor membrane using a radioactive filter-binding assay. The binding assay employs STING receptor obtained from Trichoplusia ni cell membranes (T. ni; Expression Systems, cat #94-002F, www.expressionsystems.com) overexpressing full-length HAQ STING and tritiated cGAMP ligand.
The basic HAQ STING filtration assay protocol is as follows:
The compounds were serially titrated by the Hamilton STARPlus CORE in a 96-well plate (Greiner, #651201) using a 1:3 ten-point dose response format. After compound preparation, a 2.2 ug/ml working concentration of STING membrane (SEQ. ID. No. 1) was prepared by diluting concentrated membrane into assay buffer (1×PBS; Invitrogen # SH30028.02) and douncing 7× using a manual tissue homogenizer (Wheaton, #357546). 148 uL of prepared membrane was then manually added to each well of a 96-well deep-well polypropylene plate (Fisher Scientific, #12-566-121). Following membrane addition, 2 uL of either titrated test compound, DMSO control (Sigma #276855), or cold cGAMP control was added to the appropriate wells using a BIOMEK FX. Compound and membrane then preincubated for 60 min at RT to allow compound binding to equilibrate. Following equilibration, 8 nM of [^3H]c-GAMP ligand was prepared by diluting into assay buffer, and 50 uL of this working stock was then manually added to each well of the assay plate. Plates were then incubated at RT for 60 min, and the contents of each assay plate were then filtered through a 96-well GF/B filter plate (PerkinElmer, #6005250) using a TOMTEC MACH III Cell Harvester equipped with 20 mM HEPES buffer (Fisher Scientific, # BP299500). The filter plates were then dried at 55° C. for 30 min using a pressurized oven before 30 uL of ULTIMA GOLD F scintillate was added to each well. Tritium levels for each reaction well were then measured using a PerkinElmer TopCount plate reader.
as §1

T1 sequence (Q86WV6 with tags, fused parts or gaps H232R): as the sequence (Q86WV6 with tags, fused parts or gaps R71H/G230A/H232R/R293Q) above, with H71R, A230G, Q293R counted along it

A word on the EC50: it is the concentration that produces a half-maximal response. A lower EC50 goes with an effect from little substance. `COc1cc2sc(C(=O)CCC(=O)O)cc2c(F)c1OCCCOc1c(OC)cc2sc(C(=O)[C@@H]3C[C@H]3C(=O)O)cc2c1F` (relative stereo) [Example 88, trans-2-(5-(3-((2-(3-carboxypropanoyl)-4-fluoro-6-methoxybenzo[b]thiophen-5-yl)oxy)propoxy)-4-fluoro-6-methoxybenzo[b]thiophene-2-carbonyl)cyclopropane carboxylic acid]: the EC50 in experiment [1] turned out to be 109 nM; in experiment [3] it was 3 nM. The activation at 30 µM in experiment [2] amounted to 152%.
With `COc1cc2sc(CCC(C)(C)C(=O)O)cc2c(F)c1OCCCOc1c(OC)cc2sc(C(=O)[C@@H]3CC[C@H]3C(=O)O)cc2c1F` (relative stereo) [Example 141, trans-2-(5-(3-((2-(3-carboxy-3-methylbutyl)-4-fluoro-6-methoxybenzo[b]thiophen-5-yl)oxy)propoxy)-4-fluoro-6-methoxybenzo[b]thiophene-2-carbonyl)cyclobutane-1-carboxylic acid], the EC50 in experiment [1] turned out to be 219 nM; in experiment [3] it was 24 nM. The activation at 30 µM in experiment [2] worked out at 143%.
For `COc1cc2sc(C(=O)C[C@H](C)C(=O)O)cc2c(F)c1OCCCOc1cc2sc(C(=O)[C@@H]3CC[C@H]3C(=O)O)cc2c(F)c1OC` (single isomer, unassigned) [Example 96], the results for the EC50 in experiment [1] and in experiment [3] were 628 nM and 18 nM, respectively. Further, the activation at 30 µM in experiment [2] amounted to 43%.
The term inhibition denotes how much of the control response was suppressed. Read a high inhibition as strong suppression. Compound `COc1cc2sc(C(=O)CCC(=O)O)cc2c(F)c1OCCCCCOc1c(OC)cc2sc(C(=O)[C@@H]3CC[C@H]3C(=O)O)cc2c1F` (stereo in doubt) [Example 119, 2-(5-((5-((2-(3-carboxypropanoyl)-4-fluoro-6-methoxybenzo[b]thiophen-5-yl)oxy)pentyl)oxy)-4-fluoro-6-methoxybenzo[b]thiophene-2-carbonyl)cyclo-butanecarboxylic acid] had an inhibition at 20 µM in experiment [1] (at 20,000 nM compound) of 32%. For the same compound, in experiment [2], the activation at 30 µM stood at 13%. In experiment [3], this compound came in with an EC50 of 1800 nM.
For the compound `COc1cc2sc(C(=O)C[C@H](C)C(=O)O)cc2cc1CCCCc1cc2cc(C(=O)C[C@H](C)C(=O)O)sc2cc1OC` [Example 1, (2S,2′S)-4,4′-[butane-1,4-diylbis(6-methoxy-1-benzothiene-5,2-diyl)]bis(2-methyl-4-oxobutanoic acid)], the values for the EC50 in experiment [1] and in experiment [3] were 117 nM and 6 nM, respectively. The activation at 30 µM in experiment [2] came out at 26%.
`COc1cc2sc(C(=O)C[C@H](C)C(=O)O)cc2cc1CCCc1cc2cc(C(=O)C[C@H](C)C(=O)O)sc2cc1OC` [Example 2, (2S,2′S)-4,4′-[propane-1,3-diylbis(6-methoxy-1-benzothiene-5,2-diyl)]bis(2-methyl-4-oxobutanoic acid)]: the results for the EC50 in experiment [1] and in experiment [3] were 14 nM and 7 nM, respectively. Also, in experiment [2], the activation at 30 µM was 192%.
On the same counts, the results for `COc1cc2sc(C(=O)CCC(=O)O)cc2cc1CCCOc1nc2cc(C(=O)C[C@H](C)C(=O)O)sc2cc1OC` [Example 3, (S)-4-(5-(3-(2-(3-carboxypropanoyl)-6-methoxybenzo[b]thiophen-5-yl)propoxy)-6-methoxythieno[3,2-b]pyridin-2-yl)-2-methyl-4-oxobutanoic acid] are 273 nM, 114 nM and 151%.
Regarding `COc1cc2sc(C(=O)CCC(=O)O)cc2nc1OCCCc1ccc2sc(C(=O)CCC(=O)O)cc2c1` [Example 4, 4-(5-(3-((2-(3-carboxypropanoyl)-6-methoxythieno [3,2-b]pyridin-5-yl)oxy)propyl)benzo[b]thiophen-2-yl)-4-oxobutanoic acid], the EC50 in experiment [1] stood at 33 nM; in experiment [3], 6 nM. Also, the activation at 30 µM in experiment [2] worked out at 93%.
With `COc1cc2sc(C(=O)CCC(=O)O)cc2cc1CCCOc1cc2nc(C(=O)CCC(=O)O)sc2cc1OC` [Example 5, 4-(5-(3-(2-(3-carboxypropanoyl)-6-methoxybenzo [b]thiophen-5-yl)propoxy)-6-methoxybenzo[d]thiazol-2-yl)-4-oxobutanoic acid], the results for the EC50 in experiment [1] and in experiment [3] were 381 nM and 84 nM, respectively. For the same compound, the activation at 30 µM in experiment [2] turned out to be 96%.

The values above are taken from patent publication US10793557B2, “Sting agonist compounds” (Merck Sharp & Dohme Corp., priority 2018, dated 2020).
